In article PMC4792470, “A Novel Manno-Oligosaccharide Binding Protein Identified in Alkaliphilic Bacillus sp. N16-5 Is Involved in Mannan Utilization” (PLoS ONE, 2016):

Molecular target: T1, ManH (Bacillus sp. N16-5, UniProt A0A140EH86)
T1 construct: without N-terminal signal peptide; pET-28a NcoI/BamHI, native stop codon in primer; E. coli BL21(DE3); anion exchange; primers give N-terminus (M)DENTGGN and C-terminus SLEGIE; full-length starts MNKKLWL by primer
T1 sequence (A0A140EH86 17-435): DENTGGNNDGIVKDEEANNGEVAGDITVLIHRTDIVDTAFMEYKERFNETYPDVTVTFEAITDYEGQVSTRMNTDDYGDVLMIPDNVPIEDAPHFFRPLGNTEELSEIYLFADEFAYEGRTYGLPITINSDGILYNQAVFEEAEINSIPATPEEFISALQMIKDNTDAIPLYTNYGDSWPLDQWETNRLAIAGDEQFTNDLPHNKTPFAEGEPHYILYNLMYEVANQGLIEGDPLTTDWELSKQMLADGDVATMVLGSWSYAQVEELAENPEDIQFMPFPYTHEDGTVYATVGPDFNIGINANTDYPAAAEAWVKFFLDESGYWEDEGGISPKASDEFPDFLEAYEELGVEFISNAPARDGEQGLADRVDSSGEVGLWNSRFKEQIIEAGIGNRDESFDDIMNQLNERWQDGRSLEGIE
Assay: isothermal titration calorimetry
Type: binding
Details: 20 mM Tris-HCl pH 8.0, 200 mM NaCl, 30 °C; independent-site model
Description: isothermal titration calorimetry on ManH

| Compound | Kd (1/Ka, μM) |
| --- | --- |
| galactosyl-mannotriose | 19.4 µM |
| OC[C@H]1O[C@@H](O[C@H]2[C@H](O)[C@H](O)[C@H](O[C@H]3[C@H](O)[C@H](O)[C@H](O[C@H]4[C@H](O)[C@H](O)[C@H](O[C@H]5[C@H](O)[C@H](O)C(O)O[C@@H]5CO)O[C@@H]4CO)O[C@@H]3CO)O[C@@H]2CO)[C@@H](O)[C@@H](O)[C@@H]1O (stereo partly shown) [mannopentose] | 0.8 µM |
| OC[C@H]1O[C@@H](O[C@H]2[C@H](O)[C@H](O)[C@H](O[C@H]3[C@H](O)[C@H](O)[C@H](O[C@H]4[C@H](O)[C@H](O)C(O)O[C@@H]4CO)O[C@@H]3CO)O[C@@H]2CO)[C@@H](O)[C@@H](O)[C@@H]1O (stereo partly shown) [mannotetraose] | 2.2 µM |
| OC[C@H]1O[C@@H](O[C@H]2[C@H](O)[C@H](O)[C@H](O[C@H]3[C@H](O)[C@H](O)C(O)O[C@@H]3CO)O[C@@H]2CO)[C@@H](O)[C@@H](O)[C@@H]1O (stereo partly shown) [mannotriose] | 3.8 µM |
